The values that follow come from ChEMBL document CHEMBL1142568, “Cytotoxic hydroxylated triterpene alcohol ferulates from rice bran” (J Nat Prod, 2005).

Molecules are shown by their SMILES.

The experiment concerns MCF7. Nature of the experiment: Cytotoxicity against human MCF7 cells after 72 hrs by MTT assay. The experiment is classed as functional, cell-based. To be noted: MCF7, 72 h.
The term IC50 denotes the concentration at which inhibition is half-maximal. Lower therefore signals inhibition by little substance. In turn, `COc1cc(/C=C/C(=O)O[C@H]2CC[C@]34C[C@]35CC[C@]3(C)[C@@H]([C@H](C)C/C=C\C(C)(C)O)CC[C@@]3(C)[C@@H]5CC[C@H]4C2(C)C)ccc1O` displayed an IC50 of 79 µM. That is a double-digit micromolar value.
The molecule `COc1cc(/C=C/C(=O)O[C@H]2CC[C@]34C[C@]35CC[C@]3(C)[C@@H]([C@H](C)CCC=C(C)C)CC[C@@]3(C)[C@@H]5CC[C@H]4C2(C)C)ccc1O` [GAMMA ORYZANOL] returned an IC50 of 80 µM.
Next, `C=C(C)[C@@H](O)CC[C@@H](C)[C@H]1CC[C@@]2(C)[C@@H]3CC[C@H]4C(C)(C)[C@@H](OC(=O)/C=C/c5ccc(O)c(OC)c5)CC[C@@]45C[C@@]35CC[C@]12C`: 283 µM.
The value for `C=C(CC[C@@H](C)[C@H]1CC[C@@]2(C)[C@@H]3CC[C@H]4C(C)(C)[C@@H](OC(=O)/C=C/c5ccc(O)c(OC)c5)CC[C@@]45C[C@@]35CC[C@]12C)C(C)C` was 27 µM.
Next, `C=C(C)[C@H](O)CC[C@@H](C)[C@H]1CC[C@@]2(C)[C@@H]3CC[C@H]4C(C)(C)[C@@H](OC(=O)/C=C/c5ccc(O)c(OC)c5)CC[C@@]45C[C@@]35CC[C@]12C`: 42 µM.
